Test results reported in PMC7026418, “The kinase polypharmacology landscape of clinical PARP inhibitors” (Scientific Reports, 2020).
Like-named read-outs stand apart in the source and are kept apart here. Each block holds one compound with its values, some of them ahead of it.

Columns and labels:
Experiment in all cases: biochemical
Design in all cases: DiscoveRx KINOMEscan active site-directed competition binding; percent of control kinase bound to immobilised ligand
[1] = target: T1, NDR1 (Homo sapiens, UniProt Q15208)
T1 construct: gene STK38
T1 sequence (Q15208 whole entry): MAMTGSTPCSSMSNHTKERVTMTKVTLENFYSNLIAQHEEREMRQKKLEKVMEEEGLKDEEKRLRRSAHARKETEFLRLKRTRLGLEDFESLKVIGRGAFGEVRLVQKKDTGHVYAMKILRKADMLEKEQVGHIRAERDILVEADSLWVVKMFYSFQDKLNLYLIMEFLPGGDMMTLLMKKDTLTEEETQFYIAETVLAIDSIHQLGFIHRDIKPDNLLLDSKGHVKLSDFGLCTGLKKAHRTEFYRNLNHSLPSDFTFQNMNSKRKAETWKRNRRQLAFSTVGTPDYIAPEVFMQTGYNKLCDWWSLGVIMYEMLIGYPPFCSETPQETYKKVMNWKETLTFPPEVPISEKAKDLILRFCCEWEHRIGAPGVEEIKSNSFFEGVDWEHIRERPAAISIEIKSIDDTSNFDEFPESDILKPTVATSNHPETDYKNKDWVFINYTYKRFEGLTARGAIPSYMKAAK

[2] = target: RAF1 (Homo sapiens, UniProt P04049)
Sequence of RAF1 (P04049 whole entry): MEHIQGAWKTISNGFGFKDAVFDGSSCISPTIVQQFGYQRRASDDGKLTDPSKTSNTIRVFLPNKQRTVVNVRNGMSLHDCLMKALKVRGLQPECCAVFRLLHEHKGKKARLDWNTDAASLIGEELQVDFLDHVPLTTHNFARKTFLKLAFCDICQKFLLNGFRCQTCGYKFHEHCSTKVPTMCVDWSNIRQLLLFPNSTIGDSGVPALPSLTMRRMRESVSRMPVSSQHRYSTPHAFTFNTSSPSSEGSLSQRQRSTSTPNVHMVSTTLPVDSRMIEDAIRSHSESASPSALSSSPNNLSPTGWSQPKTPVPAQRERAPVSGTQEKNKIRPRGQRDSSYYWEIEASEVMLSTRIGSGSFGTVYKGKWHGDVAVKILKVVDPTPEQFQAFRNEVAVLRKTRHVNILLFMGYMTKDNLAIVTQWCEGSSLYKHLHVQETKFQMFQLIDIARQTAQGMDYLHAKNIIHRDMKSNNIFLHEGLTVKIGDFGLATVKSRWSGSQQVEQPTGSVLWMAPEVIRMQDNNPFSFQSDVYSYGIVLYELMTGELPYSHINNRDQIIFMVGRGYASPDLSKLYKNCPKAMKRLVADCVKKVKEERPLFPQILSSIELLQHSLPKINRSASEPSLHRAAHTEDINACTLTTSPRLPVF

[3] = target: T2, IKK-alpha (Homo sapiens, UniProt O15111)
T2 construct: gene CHUK
T2 sequence (O15111 1-745): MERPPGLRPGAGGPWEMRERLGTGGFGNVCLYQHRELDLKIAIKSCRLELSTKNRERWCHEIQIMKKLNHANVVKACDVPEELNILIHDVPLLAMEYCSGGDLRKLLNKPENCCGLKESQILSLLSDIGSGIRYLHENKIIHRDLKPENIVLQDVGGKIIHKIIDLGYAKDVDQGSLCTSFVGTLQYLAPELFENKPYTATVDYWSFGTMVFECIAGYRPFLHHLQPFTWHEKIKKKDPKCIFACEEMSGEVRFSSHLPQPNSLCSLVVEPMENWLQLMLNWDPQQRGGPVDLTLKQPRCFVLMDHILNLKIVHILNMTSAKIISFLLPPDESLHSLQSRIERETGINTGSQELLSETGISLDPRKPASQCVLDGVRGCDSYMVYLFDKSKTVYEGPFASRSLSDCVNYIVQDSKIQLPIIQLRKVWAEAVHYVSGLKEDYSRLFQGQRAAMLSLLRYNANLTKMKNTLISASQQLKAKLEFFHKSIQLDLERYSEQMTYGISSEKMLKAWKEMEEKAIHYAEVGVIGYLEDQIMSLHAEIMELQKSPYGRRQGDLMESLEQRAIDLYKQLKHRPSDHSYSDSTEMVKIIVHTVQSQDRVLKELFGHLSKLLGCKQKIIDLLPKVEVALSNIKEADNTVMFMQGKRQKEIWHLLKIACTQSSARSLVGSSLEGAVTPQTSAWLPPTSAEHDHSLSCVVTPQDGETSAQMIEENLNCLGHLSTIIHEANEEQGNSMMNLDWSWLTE

[4] = target: T3, RSK4(Kin.Dom.2-C-terminal) (Homo sapiens, UniProt Q9UK32)
T3 construct: gene RPS6KA6; Kin.Dom.2-C-terminal
T3 sequence (Q9UK32 whole entry): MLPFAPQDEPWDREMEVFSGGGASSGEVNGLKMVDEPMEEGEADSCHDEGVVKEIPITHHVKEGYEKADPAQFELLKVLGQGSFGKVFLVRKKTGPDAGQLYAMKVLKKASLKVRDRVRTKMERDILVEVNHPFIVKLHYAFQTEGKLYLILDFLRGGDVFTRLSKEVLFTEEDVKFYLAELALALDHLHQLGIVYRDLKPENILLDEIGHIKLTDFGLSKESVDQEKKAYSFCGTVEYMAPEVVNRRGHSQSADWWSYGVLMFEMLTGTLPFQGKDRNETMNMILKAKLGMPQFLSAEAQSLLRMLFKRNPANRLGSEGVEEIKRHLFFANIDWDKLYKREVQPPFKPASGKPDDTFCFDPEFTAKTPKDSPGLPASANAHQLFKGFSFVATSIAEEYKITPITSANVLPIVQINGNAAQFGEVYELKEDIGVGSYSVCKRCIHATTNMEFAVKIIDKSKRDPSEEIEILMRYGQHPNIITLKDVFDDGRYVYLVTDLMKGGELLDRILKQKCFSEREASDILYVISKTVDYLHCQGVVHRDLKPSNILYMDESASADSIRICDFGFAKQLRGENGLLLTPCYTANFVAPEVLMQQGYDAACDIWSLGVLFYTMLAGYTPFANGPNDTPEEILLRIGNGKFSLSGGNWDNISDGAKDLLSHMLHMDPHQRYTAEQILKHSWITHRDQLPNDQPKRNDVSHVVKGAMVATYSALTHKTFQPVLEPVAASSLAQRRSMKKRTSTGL

[5] = target: T4, FLT3(ITD) (Homo sapiens, UniProt P36888, ITD)
T4 sequence (P36888 564-993): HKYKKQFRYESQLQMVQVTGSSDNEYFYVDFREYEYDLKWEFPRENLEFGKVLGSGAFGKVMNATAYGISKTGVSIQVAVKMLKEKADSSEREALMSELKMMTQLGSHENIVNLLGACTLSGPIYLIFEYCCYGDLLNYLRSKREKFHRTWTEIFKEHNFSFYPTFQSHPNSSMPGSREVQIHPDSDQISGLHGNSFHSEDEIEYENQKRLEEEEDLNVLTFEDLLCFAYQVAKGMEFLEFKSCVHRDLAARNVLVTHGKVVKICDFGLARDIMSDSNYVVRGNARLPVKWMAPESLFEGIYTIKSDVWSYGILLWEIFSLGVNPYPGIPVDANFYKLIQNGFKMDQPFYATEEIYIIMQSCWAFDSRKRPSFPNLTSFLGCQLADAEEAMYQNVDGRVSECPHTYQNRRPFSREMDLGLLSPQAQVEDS

[6] = target: T5, FLT3(K663Q) (Homo sapiens, UniProt P36888, K663Q)
T5 sequence (P36888 1-993 K663Q): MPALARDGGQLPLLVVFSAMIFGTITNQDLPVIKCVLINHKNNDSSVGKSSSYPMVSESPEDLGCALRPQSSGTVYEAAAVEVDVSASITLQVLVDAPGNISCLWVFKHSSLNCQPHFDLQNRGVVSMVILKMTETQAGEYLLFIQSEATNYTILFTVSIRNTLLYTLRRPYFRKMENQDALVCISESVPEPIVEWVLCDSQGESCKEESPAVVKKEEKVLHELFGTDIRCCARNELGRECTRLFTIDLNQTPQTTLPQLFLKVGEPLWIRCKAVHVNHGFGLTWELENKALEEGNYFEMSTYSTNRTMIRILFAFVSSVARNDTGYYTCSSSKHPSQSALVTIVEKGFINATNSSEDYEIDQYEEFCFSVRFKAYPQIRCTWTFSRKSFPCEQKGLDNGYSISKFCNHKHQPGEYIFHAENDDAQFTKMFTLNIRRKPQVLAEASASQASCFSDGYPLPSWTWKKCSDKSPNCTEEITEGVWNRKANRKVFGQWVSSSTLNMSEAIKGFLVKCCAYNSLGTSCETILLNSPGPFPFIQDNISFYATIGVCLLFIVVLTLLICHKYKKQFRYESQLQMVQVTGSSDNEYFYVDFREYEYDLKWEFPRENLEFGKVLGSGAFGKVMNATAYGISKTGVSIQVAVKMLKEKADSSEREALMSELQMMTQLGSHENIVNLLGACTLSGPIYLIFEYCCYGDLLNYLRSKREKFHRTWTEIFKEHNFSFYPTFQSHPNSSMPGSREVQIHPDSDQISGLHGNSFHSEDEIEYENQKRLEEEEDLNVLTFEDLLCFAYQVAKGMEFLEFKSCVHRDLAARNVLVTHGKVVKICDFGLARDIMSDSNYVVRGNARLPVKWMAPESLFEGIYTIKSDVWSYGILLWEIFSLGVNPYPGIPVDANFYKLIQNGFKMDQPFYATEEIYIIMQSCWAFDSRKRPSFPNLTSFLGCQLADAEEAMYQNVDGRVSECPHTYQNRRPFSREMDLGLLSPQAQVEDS

[7] = target: PKN1 (Homo sapiens, UniProt Q16512)
Sequence of PKN1 (Q16512 whole entry): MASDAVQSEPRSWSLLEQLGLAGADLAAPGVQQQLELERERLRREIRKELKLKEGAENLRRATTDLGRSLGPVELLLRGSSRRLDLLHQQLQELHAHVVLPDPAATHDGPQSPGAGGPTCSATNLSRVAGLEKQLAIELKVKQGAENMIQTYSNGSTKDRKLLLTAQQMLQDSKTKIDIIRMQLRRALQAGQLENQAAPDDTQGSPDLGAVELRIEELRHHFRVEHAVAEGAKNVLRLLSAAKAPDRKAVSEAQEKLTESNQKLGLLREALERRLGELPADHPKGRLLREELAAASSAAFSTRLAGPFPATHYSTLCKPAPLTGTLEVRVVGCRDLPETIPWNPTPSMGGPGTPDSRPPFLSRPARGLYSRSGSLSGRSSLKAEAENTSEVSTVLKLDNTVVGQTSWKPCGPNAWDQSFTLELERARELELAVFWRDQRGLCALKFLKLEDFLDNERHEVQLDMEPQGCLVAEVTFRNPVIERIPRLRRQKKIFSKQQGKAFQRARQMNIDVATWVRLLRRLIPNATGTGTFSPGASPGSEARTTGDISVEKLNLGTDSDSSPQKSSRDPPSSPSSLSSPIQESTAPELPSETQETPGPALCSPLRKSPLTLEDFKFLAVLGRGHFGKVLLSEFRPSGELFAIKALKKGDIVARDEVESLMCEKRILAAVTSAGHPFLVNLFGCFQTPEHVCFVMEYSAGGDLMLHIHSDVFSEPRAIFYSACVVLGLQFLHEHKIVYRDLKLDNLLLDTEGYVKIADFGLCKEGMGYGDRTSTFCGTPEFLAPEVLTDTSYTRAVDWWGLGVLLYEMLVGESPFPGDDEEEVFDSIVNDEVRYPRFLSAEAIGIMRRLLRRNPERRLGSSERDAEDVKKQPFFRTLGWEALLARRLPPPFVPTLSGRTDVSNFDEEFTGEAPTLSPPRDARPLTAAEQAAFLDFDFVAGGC

[8] = read-out: Niraparib (MK-4827) / %Ctrl @ 10000nM
[9] = read-out: Olaparib / %Ctrl @ 10000nM
[10] = read-out: Rucaparib / %Ctrl @ 10000nM, binding competition, % of control
[11] = read-out: Talazoparib (BMN 673) / %Ctrl @ 10000nM

Structure (SMILES): NC(=O)c1cccc2cn(-c3ccc([C@@H]4CCCNC4)cc3)nc12 [Niraparib]
- percent of control binding at 10 µM [1, 8]: 100%
- percent of control binding at 10 µM [2, 8]: 93%
- percent of control binding at 10 µM [3, 8]: 100%
- percent of control binding at 10 µM [4, 8]: 100%
- percent of control binding at 10 µM [5, 8]: 92%
- percent of control binding at 10 µM [6, 8]: 75%
- percent of control binding at 10 µM [7, 8]: 69%

- percent of control binding at 10 µM [1, 9]: 100%
- percent of control binding at 10 µM [2, 9]: 89%
- percent of control binding at 10 µM [3, 9]: 79%
- percent of control binding at 10 µM [4, 9]: 92%
- percent of control binding at 10 µM [5, 9]: 100%
- percent of control binding at 10 µM [6, 9]: 88%
- percent of control binding at 10 µM [7, 9]: 83%
Structure (SMILES): O=C(c1cc(Cc2n[nH]c(=O)c3ccccc23)ccc1F)N1CCN(C(=O)C2CC2)CC1 [Olaparib]

- percent of control binding at 10 µM [1, 10]: 69%
- percent of control binding at 10 µM [2, 10]: 99%
- percent of control binding at 10 µM [3, 10]: 42%
- percent of control binding at 10 µM [4, 10]: 82%
- Rucaparib / %Ctrl @ 10000nM ([6]; binding competition, % of control): 93%
- percent of control binding at 10 µM [7, 10]: 78%
Structure (SMILES): CNCc1ccc(-c2[nH]c3cc(F)cc4c3c2CCNC4=O)cc1 [Rucaparib]

- percent of control binding at 10 µM [1, 11]: 72%
- percent of control binding at 10 µM [2, 11]: 90%
- percent of control binding at 10 µM [3, 11]: 100%
- percent of control binding at 10 µM [4, 11]: 97%
- percent of control binding at 10 µM [5, 11]: 100%
- percent of control binding at 10 µM [6, 11]: 91%
- percent of control binding at 10 µM [7, 11]: 74%
Structure (SMILES): Cn1ncnc1[C@H]1c2n[nH]c(=O)c3cc(F)cc(c23)N[C@@H]1c1ccc(F)cc1 [Talazoparib]
